Data taken from patent US5145844A, “Methods of using hydroxy-, alkoxy- and benzyloxy-substituted phospholipids to treat phospholipase A2 -mediated conditions and to alleviate pain” (Hoechst-Roussel Pharmaceuticals Incorporated, priority 1991, dated 1992).
Structures can show the parent of a compound that is named as a salt.

What follows are molecules tested on phenyl-para-quinone induced writhing (assay: phenyl-para-quinone writhing assay in mice (Analgesic PQW)). Settings: 20 mg/kg, s.c.
Type: in vivo
Text: The compounds of the present invention are also useful as analgesic agents due to their ability to alleviate pain in mammals. […] Exptl. Biol. Med., 95, 729 (1957)]. Presented in Table 2 is the analgesic effect of some of the compounds of the invention expressed as either the subcutaneous dose at which 50% of the phenyl-para-quinone induced writhing is inhibited in the animals, i.e., the ED50 value, or at the % decrease in writhing at a give dose.

Q: For `CCCCCCCCCCCCCCCC(CCCOP(=O)([O-])OCC[N+](C)(C)C)OCc1ccccc1` (stereo not shown) [4-Hydroxy-N,N,N-trimethyl-9-phenylmethoxy.3,5-dioxa-4-phosphatetracosan-1-aminium, 4-oxide, hydroxide, inner salt monohydrate], which “Analgesic PQW % Inhibition of Writhing” value is on record?
A: 36%

Q: `CCCCCCCCCC(CCCOP(=O)([O-])OCC[N+](C)(C)C)OCc1ccccc1` (stereo not shown) [4-Hydroxy-N,N,N-trimethyl-9-phenylmethoxy-3,5-dioxa-4-phosphaoctadecan-1-aminium, 4-oxide, hydroxide, inner salt monohydrate] was tested. Which “Analgesic PQW % Inhibition of Writhing” value did it give?
A: 83%

Q: How did the “Analgesic PQW % Inhibition of Writhing” value turn out when `C[N+](C)(C)CCOP(=O)([O-])OCCCC(O)CCCCCCCCCOc1ccccc1` (stereo not shown) [4,9-Dihydroxy-N,N,N-trimethyl-3,5-dioxa-18-phenoxy-4-phosphaoctadecan-1-aminium, 4-oxide, hydroxide, inner salt dihydrate] was run?
A: 48%

Q: Which “Analgesic PQW % Inhibition of Writhing” value does the source give for `CCCCCCCCCCCCCCCC(O)CCCOP(=O)([O-])OCC[N+]1(C)CCCC1` (stereo not shown) [4,9-Dihydroxy-N-methyl-3,5-dioxa-4-phosphatetetracosan-1-pyrrolidinium, 4-oxide, hydroxide, inner salt 3.5 hydrate] here?
A: 62%
